For one series, the system named is HSV-1. Kind of series: microbe, parasite or virus in culture. It is filed as cell-based, human herpes 1. As to conditions: Human alphaherpesvirus 1, Vero 76, read-out: HSV-1 EC50.
Series [1] in a line: in vitro. The note with it: African green monkey (Cercopithecus aethiops).
Another series deals with VV. Briefly: microbe, parasite or virus in culture. It is filed as cell-based. As to conditions: Orthopoxvirus vaccinia, Vero 76, read-out: VV EC50.
The next series has as its system Reo-1. Kind of series: microbe, parasite or virus in culture. As to conditions: Reovirus sp., BHK, read-out: Reo-1 EC50. It is filed as cell-based, reovirus type-1.
In another series the test system is RSV. Briefly: microbe, parasite or virus in culture. It is filed as cell-based, human respiratory syncytial virus. The note with it: human respiratory syncytial virus, Vero 76, read-out: RSV EC50.
Another series relates to BVDV. Kind of series: microbe, parasite or virus in culture. Format: cell-based, bovine viral diarrhoea virus. As to conditions: for EC50: Bovine viral diarrhea virus isolates and strains, MDBK, in Bos taurus, read-out: BVDV EC50.
The subject of a further series is YFV. Briefly: microbe, parasite or virus in culture. It is filed as cell-based. As to conditions: Yellow fever virus, BHK, read-out: YFV EC50.
Series [2] in a line: in vitro. As to conditions: human.
Series [3] can be described thus: in vitro. The note with it: cattle (Bos taurus).
Series [4] is described as follows: in vitro. As to conditions: Syrian hamster (Mesocricetus auratus).
The next series concerns Sb-1. Briefly: microbe, parasite or virus in culture. Format: cell-based, poliovirus type-1. The note with it: Enterovirus C, Vero 76, read-out: Sb-1 EC50.
A further series deals with CV-B5. Briefly: microbe, parasite or virus in culture. Format: cell-based, coxsackievirus B5. As to conditions: Enterovirus B, CVB5, Vero 76, read-out: CV-B5 EC50.
Another series concerns VSV. Kind of series: microbe, parasite or virus in culture. Format: cell-based. The note with it: Vesicular stomatitis virus, Vero 76, read-out: VSV EC50.
For another series, the system named is HIV-1. Kind of series: microbe, parasite or virus in culture. As to conditions: Human immunodeficiency virus 1, MT4, read-out: HIV-1 EC50.

In the case of `Nc1nc2c(ncn2COCCO)c(=O)[nH]1` [Acycloguanosine, acycloguanosine, reference compound], the concentration giving a half-maximal response (EC50) with HSV-1 worked out at 3 ± 0.2 µM. In addition, the CC50 in “in vitro [1]” was above 100 µM.

Consider `Fc1ccc(NC(=S)NCCc2c[nH]c3ccccc23)cc1` [Compound 17, 1-(2-(1H-Indol-3-yl)ethyl)-3-(4-fluorophenyl)thiourea], for which the 50% effective concentration (EC50) in the series with VV was above 53 µM; in the series with Reo-1, above 30 µM; with RSV it was above 53 µM; in the series with BVDV, above 53 µM; with HSV-1 it was above 53 µM; with YFV it was above 30 µM. Moreover, the EC50 in the series on Sb-1 was above 53 µM; with CV-B5 it was above 53 µM; in the series with VSV, above 53 µM; in the series on HIV-1, above 44 µM. Further, the CC50 is 44 µM in “in vitro [2]”, 53 µM in “in vitro [3]”, 30 µM in “in vitro [4]” and 53 µM in the series “in vitro [1]”.

Turning to `S=C(NCCc1c[nH]c2ccccc12)Nc1ccccc1Cl` [Compound 13, 1-(2-(1H-Indol-3-yl)ethyl)-3-(2-chlorophenyl)thiourea], the melting point was in the range of 170 to 172 °C. Also, the EC50 with VV was above 53 µM. Further, the EC50 in the series on Reo-1 was above 11 µM. In the series on RSV, the EC50 is above 53 µM. Further, in the series on BVDV, the EC50 is above 49 µM. Besides, in the series on HSV-1, the EC50 was above 53 µM. Moreover, in the series with YFV, the EC50 is above 11 µM. The compound also yielded a CC50 in the series “in vitro [2]” of 47 µM. In “in vitro [3]”, this compound gave a CC50 of 49 µM. Also, the CC50 in “in vitro [4]” stood at 11 µM. For the same compound, the concentration for a half-maximal effect (EC50) in the series on Sb-1 is above 53 µM. Further, the EC50 in the series on CV-B5 was found to be 12 ± 0.9 µM. Moreover, the EC50 in the series with VSV is above 53 µM. Besides, the CC50 in the series “in vitro [1]” amounted to 53 µM. Further, the concentration giving a half-maximal response (EC50) in the series on HIV-1 is above 47 µM.

On to `S=C(NCCc1c[nH]c2ccccc12)NCc1ccccc1` [Compound 10, 1-(2-(1H-Indol-3-yl)ethyl)-3-benzylthiourea], for which the EC50 was above 100 µM with VV; above 52 µM in the series with Reo-1; above 100 µM with RSV; above 100 µM with BVDV; above 100 µM in the series with HSV-1; above 52 µM with YFV. Further, the EC50 in the series with Sb-1 is above 100 µM; in the series with CV-B5, 30 ± 2.4 µM; in the series with VSV it was above 100 µM; in the series with HIV-1 it was above 78 µM. For the same compound, the CC50 in “in vitro [2]” is 78 µM; in “in vitro [3]” it was above 100 µM; in “in vitro [4]”, 52 µM; in “in vitro [1]” it was above 100 µM.

With `S=C(NCCc1c[nH]c2ccccc12)Nc1ccc(Cl)cc1` [Compound 4, 1-(2-(1H-Indol-3-yl)ethyl)-3-(4-chlorophenyl)thiourea], the EC50 in the series on VV was above 55 µM; in the series on Reo-1, above 47 µM; in the series on RSV, above 55 µM; in the series on BVDV, above 100 µM; in the series with HSV-1, above 55 µM; with YFV it was above 47 µM. The EC50 with Sb-1 is above 55 µM; in the series on CV-B5, above 55 µM; in the series with VSV, above 55 µM; in the series on HIV-1, above 45 µM. Moreover, the CC50 was 45 µM in the series “in vitro [2]”, above 100 µM in the series “in vitro [3]”, 47 µM in “in vitro [4]” and 55 µM in “in vitro [1]”.

`Cc1ccc(Cl)cc1NC(=S)NCCc1c[nH]c2ccccc12` [Compound 26, 1-(2-(1H-Indol-3-yl)ethyl)-3-(3-chloro-6-methylphenyl)thiourea] yielded a melting point of 163 to 165 °C. In addition, in the series with VV, the EC50 was above 17 µM. In addition, in the series with Reo-1, the EC50 is above 12 µM. In addition, the 50% effective concentration (EC50) in the series on RSV is above 17 µM. For the same compound, in the series with BVDV, the “activity against BVDV (in words)” value is recorded as “showed activity” and the half-maximal effective concentration (EC50) amounted to 15 ± 1.2 µM. The concentration for a half-maximal effect (EC50) with HSV-1 is above 17 µM. Also, in the series with YFV, the EC50 was above 12 µM. Also, in “in vitro [2]”, the CC50 stood at 45 µM. The compound also yielded a CC50 in the series “in vitro [3]” of 42 µM. Besides, the CC50 in the series “in vitro [4]” was determined as 12 µM. The concentration for a half-maximal effect (EC50) in the series with Sb-1 is above 17 µM. Further, in the series on CV-B5, the 50% effective concentration (EC50) was above 17 µM. For the same compound, the 50% effective concentration (EC50) in the series on VSV was above 17 µM. The CC50 in “in vitro [1]” was found to be 17 µM. Further, the EC50 in the series on HIV-1 was above 45 µM.

The compound `Fc1ccccc1NC(=S)NCCc1c[nH]c2ccccc12` [Compound 11, 1-(2-(1H-Indol-3-yl)ethyl)-3-(2-fluorophenyl)thiourea] had a melting point of 167 to 168 °C. Also, in the series on VV, the EC50 was above 73 µM. Further, the EC50 in the series on Reo-1 was above 34 µM. The EC50 with RSV was above 73 µM. In the series with BVDV, the EC50 is above 69 µM. The concentration for a half-maximal effect (EC50) in the series on HSV-1 was above 73 µM. In addition, the half-maximal effective concentration (EC50) with YFV is above 34 µM. Besides, in the series “in vitro [2]”, the CC50 was 48 µM. In “in vitro [3]”, this compound gave a CC50 of 69 µM. This compound also registered a CC50 in the series “in vitro [4]” of 34 µM. Besides, the concentration for a half-maximal effect (EC50) with Sb-1 was above 73 µM. For the same compound, the 50% effective concentration (EC50) in the series on CV-B5 is above 73 µM. In addition, the EC50 in the series on VSV was above 73 µM. In “in vitro [1]”, this compound had a CC50 of 73 µM. The EC50 in the series on HIV-1 is above 48 µM.

For the compound `S=C(NCCc1c[nH]c2ccccc12)NC1CCCCC1` [Compound 9, 1-(2-(1H-Indol-3-yl)ethyl)-3-cyclohexylthiourea], the half-maximal effective concentration (EC50) with VV is above 14 µM; in the series on Reo-1, above 13 µM; with RSV it was above 14 µM; in the series on BVDV, above 55 µM; with HSV-1, above 14 µM; in the series with YFV, above 13 µM. Moreover, the EC50 in the series on Sb-1 was above 14 µM; in the series with CV-B5, above 14 µM; with VSV, above 14 µM; in the series on HIV-1, above 49 µM. The CC50 in “in vitro [2]” came to 49 µM; in the series “in vitro [3]”, 55 µM; in the series “in vitro [4]”, 13 µM; in “in vitro [1]”, 14 µM.

For the compound `C[C@@]1(O)[C@H](O)[C@@H](CO)O[C@H]1n1ccc(N)nc1=O` [2′-C-methyl-cytidine, 2′-C-methylcytidine, reference compound], the EC50 in the series on Reo-1 amounted to 10 ± 1.2 µM; with Sb-1, 7.3 ± 0.4 µM; with CV-B5 it was 18 ± 0.9 µM. Further, the CC50 in “in vitro [4]” and in the series “in vitro [1]” was above 100 µM in each case.

Consider `S=C(NCCc1c[nH]c2ccccc12)Nc1ccccc1` [Compound 1, 1-(2-(1H-Indol-3-yl)ethyl)-3-phenylthiourea], for which the EC50 with VV is above 64 µM; in the series on Reo-1, above 48 µM; in the series with RSV it was above 64 µM; with BVDV, above 100 µM; in the series on HSV-1, above 64 µM; in the series on YFV, above 48 µM. Further, the concentration for a half-maximal effect (EC50) was above 64 µM with Sb-1, above 64 µM with CV-B5, above 64 µM in the series with VSV and above 31 µM with HIV-1. The CC50 in the series “in vitro [2]” was 31 µM; in the series “in vitro [3]”, above 100 µM; in the series “in vitro [4]” it was 48 µM; in “in vitro [1]”, 64 µM.

In the case of `O=C(NC(=S)NCCc1c[nH]c2ccccc12)c1ccccc1` [Compound 5, 1-(2-(1H-Indol-3-yl)ethyl)-3-benzoylthiourea], the EC50 with VV was above 29 µM; in the series on Reo-1 it was above 34 µM; in the series with RSV, above 29 µM; with BVDV, 20 ± 1.5 µM; in the series on HSV-1 it was above 29 µM; in the series on YFV, above 34 µM. Also, the EC50 is above 29 µM with Sb-1, above 29 µM in the series with CV-B5, above 29 µM with VSV and above 38 µM with HIV-1. The “activity against BVDV (in words)” value with BVDV is given as “showed activity”. In addition, the CC50 was 38 µM in the series “in vitro [2]”, 67 µM in the series “in vitro [3]”, 34 µM in the series “in vitro [4]” and 29 µM in “in vitro [1]”.

Consider `COc1c(C)c2c(c(O)c1C/C=C(\C)CCC(=O)O)C(=O)OC2` [Mycophenolic acid, mycophenolic acid, reference compound], for which the 50% effective concentration (EC50) in the series on VV was 1.5 ± 0.2 µM. In the series “in vitro [1]”, the CC50 was determined as 13 µM.

Source of the values: article PMC6222422, “Synthesis and Biological Evaluation of Novel Indole-Derived Thioureas” (Molecules : A Journal of Synthetic Chemistry and Natural …, 2018).
